Results from patent US10981926B2 (Janssen Pharmaceutica NV, priority 2016, dated 2021).

Tests used:
[1] = target: T1, wild-type Androgen Receptor (AR-wt) (Homo sapiens (Human), UniProt P10275); experiment: LNCaP-AR-wt ANT reporter assay (antagonist mode); assay type: cell-based; conditions: for IC50: read-out: LNCaP-AR-wt ANT pIC50 (converted); for Emax: maximum % inhibition of R1881 control response over the tested concentration range, read-out: LNCaP-AR-wt ANT MAX % Inh
[2] = target: T1, wild-type Androgen Receptor (AR-wt); experiment: LNCaP-AR-wt AG reporter assay (agonist mode); assay type: cell-based; conditions: for EC50: agonist mode, pEC50 = −Log10(EC50 in Molar), read-out: LNCaP-AR-wt AG pEC50 (converted); for Emax: maximum % stimulation (agonist response) over the tested concentration range, read-out: LNCaP-AR-wt AG MAX % Stim
[3] = target: T2, F876L mutant Androgen Receptor (AR-F876L) (Homo sapiens (Human), UniProt P10275, F877L); experiment: LNCaP-AR-F876L ANT reporter assay (antagonist mode); assay type: cell-based; conditions: for IC50: read-out: LNCaP-AR-F876L ANT pIC50 (converted); for Emax: maximum % inhibition of R1881 control response over the tested concentration range, read-out: LNCaP-AR-F876L ANT MAX % Inh
T2 sequence (P10275 whole entry F877L): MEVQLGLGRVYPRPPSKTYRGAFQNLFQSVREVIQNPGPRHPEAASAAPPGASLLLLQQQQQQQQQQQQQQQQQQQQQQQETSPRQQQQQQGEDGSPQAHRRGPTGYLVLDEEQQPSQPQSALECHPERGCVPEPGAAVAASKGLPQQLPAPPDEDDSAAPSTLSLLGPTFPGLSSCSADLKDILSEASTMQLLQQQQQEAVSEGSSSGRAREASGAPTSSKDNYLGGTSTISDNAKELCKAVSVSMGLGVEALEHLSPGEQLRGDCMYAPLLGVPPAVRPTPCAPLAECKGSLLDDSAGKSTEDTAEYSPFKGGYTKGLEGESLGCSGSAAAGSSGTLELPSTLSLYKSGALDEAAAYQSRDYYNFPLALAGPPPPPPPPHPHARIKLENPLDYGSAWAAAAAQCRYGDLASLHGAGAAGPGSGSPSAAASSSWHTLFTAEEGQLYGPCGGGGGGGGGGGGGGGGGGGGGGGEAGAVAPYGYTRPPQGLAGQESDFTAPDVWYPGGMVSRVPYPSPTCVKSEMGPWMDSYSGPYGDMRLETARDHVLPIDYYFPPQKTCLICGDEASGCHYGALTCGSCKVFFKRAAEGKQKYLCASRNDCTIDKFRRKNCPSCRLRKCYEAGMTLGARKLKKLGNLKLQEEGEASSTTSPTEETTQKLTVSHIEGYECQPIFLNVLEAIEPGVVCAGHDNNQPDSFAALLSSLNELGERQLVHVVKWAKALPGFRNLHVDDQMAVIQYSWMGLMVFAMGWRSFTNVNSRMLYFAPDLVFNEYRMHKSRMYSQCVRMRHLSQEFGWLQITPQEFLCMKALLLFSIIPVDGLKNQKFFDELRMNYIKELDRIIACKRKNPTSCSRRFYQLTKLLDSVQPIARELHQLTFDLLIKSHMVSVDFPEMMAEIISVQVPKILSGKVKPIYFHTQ

[4] = target: T2, F876L mutant Androgen Receptor (AR-F876L); experiment: LNCaP-AR-F876L AG reporter assay (agonist mode); assay type: cell-based; conditions: for EC50: agonist mode, pEC50 = −Log10(EC50 in Molar), read-out: LNCaP-AR-F876L AG pEC50 (converted); for Emax: maximum % stimulation (agonist response) over the tested concentration range, read-out: LNCaP-AR-F876L AG MAX % Stim
rGABA-gated Cl− channel = experiment: GABA-Gated Cl Channel Antagonist Radioligand Binding Assay; set-up: species or system rat; conditions: 10 μM single point, [35S]-TBPS, cerebral cortex membrane homogenates
Method in brief: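 Rat cerebral cortex membranes (120 μg protein) incubated 120 min at 22° C with 3 nM […] in 50 mM Na2HPO4/KH2PO4 pH 7.4, 500 mM NaCl; nonspecific binding defined with 20 μM picrotoxinin. Bound label counted after filtration; values are percent inhibition of specific binding at 10 μM compound.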

[5] = antagonist mode, pIC50 = −Log10(IC50 in Molar)

T1 sequence (P10275 whole entry): as the sequence (P10275 whole entry F877L) above, with L877F counted along it

IC50 [1, 5] [nM] | Emax [1] [%] | EC50 [2] [nM] | Emax [2] [%] | IC50 [3, 5] [nM] | Emax [3] [%] | EC50 [4] [nM] | Emax [4] [%] | rGABA-gated Cl− channel % inh @10 μM (rGABA-gated Cl− channel) [%] | LNCaP-AR-wt ANT pIC50 [1, 5] | LNCaP-AR-F876L ANT pIC50 [3, 5] | Compound
81.3 | 102 | > 15100 | 0 | 69.2 | 101 | > 15100 | 0.1 | 13.0 | – | – | N#Cc1ncc(N2C(=O)C3(CCC3)N(c3ccc(OC4CCN(CCO)CC4)nc3)C2=S)cc1C(F)(F)F [Cpd 63, 5-[8-[6-[[1-(2-hydroxyethyl)-4-piperidyl]oxy]-3-pyridyl]-5-oxo-7-thioxo-6,8-diazaspiro[3.4]octan-6-yl]-3-(trifluoromethyl)pyridine-2-carbonitrile]
– | 101 | > 15100 | -0.2 | – | 100 | > 15100 | 0.1 | 5.8 | 7.30 | 7.33 | N#Cc1ncc(N2C(=O)C3(CCC3)N(c3ccc(OC4CCNCC4)nc3)C2=S)cc1Cl [Cpd 64, 3-chloro-5-[5-oxo-8-[6-(4-piperidyloxy)-3-pyridyl]-7-thioxo-6,8-diazaspiro[3.4]octan-6-yl]pyridine-2-carbonitrile]
7.24 | 101 | > 15100 | 0.4 | 8.51 | 99.3 | > 15100 | 0.4 | 67.2 | – | – | N#CCN1CCC(Oc2ccc(N3C(=S)N(c4cnc(C#N)c(Cl)c4)C(=O)C34CCC4)cn2)CC1 [Cpd 65, 3-chloro-5-[8-[6-[[1-(cyanomethyl)-4-piperidyl]oxy]-3-pyridyl]-5-oxo-7-thioxo-6,8-diazaspiro[3.4]octan-6-yl]pyridine-2-carbonitrile]
49 | 99 | > 15100 | 0.5 | 45.7 | 95.5 | > 15100 | 0.9 | 83.0 | – | – | N#Cc1ncc(N2C(=O)C3(CCC3)N(c3ccc(OC4CCN(CC(F)(F)F)CC4)nc3)C2=S)cc1C(F)(F)F [Cpd 66, 5-[5-oxo-7-thioxo-8-[6-[[1-(2,2,2-trifluoroethyl)-4-piperidyl]oxy]-3-pyridyl]-6,8-diazaspiro[3.4]octan-6-yl]-3-(trifluoromethyl)pyridine-2-carbonitrile]
42.7 | 99.6 | > 15100 | 0.4 | 46.8 | 97.4 | > 15100 | 0.7 | 53.4 | – | – | N#Cc1ncc(N2C(=O)C3(CCC3)N(c3ccc(OC4CCN(CCF)CC4)nc3)C2=S)cc1C(F)(F)F [Cpd 67, 5-[8-[6-[[1-(2-fluoroethyl)-4-piperidyl]oxy]-3-pyridyl]-5-oxo-7-thioxo-6,8-diazaspiro[3.4]octan-6-yl]-3-(trifluoromethyl)pyridine-2-carbonitrile]
39.8 | 101 | > 15100 | 0.6 | 17.4 | 99.7 | > 15100 | 0.4 | 34.9 | – | – | N#Cc1ncc(N2C(=O)C3(CCC3)N(c3ccc(OC4CCC(N)CC4)cc3)C2=S)cc1C(F)(F)F (stereo not drawn) [Cpd 68, 5-[8-[4-(4-aminocyclohexoxy)phenyl]-5-oxo-7-thioxo-6,8-diazaspiro[3.4]octan-6-yl]-3-(trifluoromethyl)pyridine-2-carbonitrile]
115 | 101 | > 15100 | 0.2 | 69.2 | 98.9 | > 15100 | 0.1 | 77.5 | – | – | N#Cc1ncc(N2C(=O)C3(CCC3)N(c3ccc(N4CCOCC4)cc3)C2=S)cc1C(F)(F)F [Cpd 69, 5-[8-(4-Morpholinophenyl)-5-oxo-7-thioxo-6,8-diazaspiro[3.4]octan-6-yl]-3-(trifluoromethyl)pyridine-2-carbonitrile]
33.9 | 98.8 | > 15100 | 0.8 | 38.9 | 97.1 | > 15100 | 3.6 | 9.2 | – | – | COCCN1CCC(Oc2ccc(N3C(=S)N(c4cnc(C#N)c(Cl)c4)C(=O)C34CCC4)cn2)CC1 [Cpd 70, 3-chloro-5-[8-[6-[[1-(2-methoxyethyl)-4-piperidyl]oxy]-3-pyridyl]-5-oxo-7-thioxo-6,8-diazaspiro[3.4]octan-6-yl]pyridine-2-carbonitrile]
102 | 101 | > 15100 | 0.2 | 178 | 98.3 | > 15100 | 0.5 | 82.1 | – | – | CC(=O)N1CC(F)(F)CC1COc1ccc(N2C(=S)N(c3cnc(C#N)c(C(F)(F)F)c3)C(=O)C23CCC3)cc1 (stereo not drawn) [Cpd 71, 5-[8-[4-[(1-acetyl-4,4-difluoro-pyrrolidin-2-yl)methoxy]phenyl]-5-oxo-7-thioxo-6,8-diazaspiro[3.4]octan-6-yl]-3-(trifluoromethyl)pyridine-2-carbonitrile]
275 | 101 | > 15100 | -0.1 | 174 | 100 | > 15100 | 0 | 20.0 | – | – | CN1CCC(CNC(=O)c2ccc(N3C(=S)N(c4cnc(C#N)c(C(F)(F)F)c4)C(=O)C34CCC4)cc2)CC1 [Cpd 72, 4-[6-[6-cyano-5-(trifluoromethyl)-3-pyridyl]-5-oxo-7-thioxo-6,8-diazaspiro[3.4]octan-8-yl]-N-[(1-methyl-4-piperidyl)methyl]benzamide]
501 | 101 | > 15100 | 1 | 224 | 97.6 | > 15100 | 0.5 | 80.1 | – | – | CNC(=O)N1CCC(CNC(=O)c2ccc(N3C(=S)N(c4cnc(C#N)c(C(F)(F)F)c4)C(=O)C34CCC4)cc2)CC1 [Cpd 73, 4-[[[4-[6-[6-cyano-5-(trifluoromethyl)-3-pyridyl]-5-oxo-7-thioxo-6,8-diazaspiro[3.4]octan-8-yl]benzoyl]amino]methyl]-N-methyl-piperidine-1-carboxamide]
72.4 | 100 | > 15100 | 0.2 | 21.4 | 98.1 | > 15100 | 1.5 | 13.9 | – | – | N#Cc1ncc(N2C(=O)C3(CCC3)N(c3ccc(OCC4CNCCO4)cc3)C2=S)cc1C(F)(F)F (stereo not drawn) [Cpd 74, 5-[8-[4-(morpholin-2-ylmethoxy)phenyl]-5-oxo-7-thioxo-6,8-diazaspiro[3.4]octan-6-yl]-3-(trifluoromethyl)pyridine-2-carbonitrile]
148 | 102 | > 15100 | 0.2 | 89.1 | 101 | > 15100 | 0.1 | −32.5 | – | – | COc1cc(N2C(=O)C3(CCC3)N(c3ccc(OC4CCNCC4)nc3)C2=S)cnc1C#N [Cpd 75, 3-methoxy-5-[5-oxo-8-[6-(4-piperidyloxy)-3-pyridyl]-7-thioxo-6,8-diazaspiro[3.4]octan-6-yl]pyridine-2-carbonitrile]
